ChEMBL document CHEMBL5518207, “Structure Guided Discovery of Novel Pan Metallo-β-Lactamase Inhibitors with Improved Gram-Negative Bacterial Cell Penetration” (J Med Chem, 2024)

Assays:
[1] = Inhibition of GST tagged NDM-1 (unknown origin) expressed in Escherichia coli BL21 Star (DE3) competent cells using CCF2-FA as substrate incubated for 2 hrs by fluorescence based analysis
[2] = Inhibition of GST tagged IMP-1 (unknown origin) expressed in Escherichia coli BL21 Star (DE3) competent cells using CCF2-FA as substrate incubated for 2 hrs by fluorescence based analysis
[3] = Inhibition of GST tagged VIM-1 (unknown origin) expressed in Escherichia coli BL21 Star (DE3) competent cells using CCF2-FA as substrate incubated for 2 hrs by fluorescence based analysis
Escherichia coli = assay: Potentiation of imipenem induced antibacterial activity against Escherichia coli CLB30005 harbouring NDM-1 incubated for 18 to 22 hrs in presence of imipenem by spectrophotometer based analysis; assay type: functional; details: time 18-22 hrs
Serratia marcescens = assay: Potentiation of imipenem induced antibacterial activity against Serratia marcescens CL5741 harbouring IMP-1 incubated for 18 to 22 hrs imipenem by spectrophotometer based analysis; assay type: functional; details: time 18-22 hrs
Klebsiella pneumoniae = assay: Potentiation of imipenem induced antibacterial activity against Klebsiella pneumoniae IHMA599644 harbouring VIM-1 incubated for 18 to 22 hrs imipenem by spectrophotometer based analysis; assay type: functional; details: time 18-22 hrs
Pseudomonas aeruginosa [4] = assay: Potentiation of imipenem induced antibacterial activity against isogenic efflux wild type Pseudomonas aeruginosa MB9798 harbouring IMP incubated for 18 to 22 hrs imipenem and beta lactamase inhibitor by spectrophotometer based analysis; assay type: functional; details: time 18-22 hrs
Pseudomonas aeruginosa [5] = assay: Potentiation of imipenem induced antibacterial activity against isogenic efflux deleted mutant Pseudomonas aeruginosa MB9799 harbouring IMP incubated for 18 to 22 hrs imipenem and beta lactamase inhibitor by spectrophotometer based analysis; assay type: functional; details: time 18-22 hrs
Pseudomonas aeruginosa [6] = assay: Efflux ratio of MITC95 for potentiation of imipenem induced antibacterial activity against isogenic efflux wild type Pseudomonas aeruginosa MB9798 harbouring IMP to MITC95 for potentiation of imipenem induced antibacterial activity against isogenic efflux deleted mutant Pseudomonas aeruginosa MB9799 harbouring IMP; assay type: functional
[7] = Inhibition of GST tagged VIM-2 (unknown origin) expressed in Escherichia coli BL21 Star (DE3) competent cells using CCF2-FA as substrate incubated for 2 hrs by fluorescence based analysis
[8] = AUC in rat at 1 mg/kg, iv measured after 24 hrs by HPLC-MS analysis; assay type: ADME, organism-based; details: in vivo
[9] = Clearance in rat at 1 mg/kg, iv measured after 24 hrs by HPLC-MS analysis; assay type: ADME, organism-based; details: in vivo
[10] = Volume of distribution at steady state in rat at 1 mg/kg, iv measured after 24 hrs by HPLC-MS analysis; assay type: ADME, organism-based; details: in vivo, read-out: Vdss
[11] = Cmax in rat at 1 mg/kg, iv measured after 24 hrs by HPLC-MS analysis; assay type: ADME, organism-based; details: in vivo
[12] = MRT in rat at 1 mg/kg, iv measured after 24 hrs by HPLC-MS analysis; assay type: ADME, organism-based; details: in vivo
[13] = Unbound fraction in rat plasma at 1 mg/kg, iv measured after 24 hrs by HPLC-MS analysis; assay type: ADME, organism-based
[14] = AUC in Beagle dog at 1 mg/kg, iv measured after 24 hrs by HPLC-MS analysis; assay type: ADME, organism-based, Canis lupus familiaris; details: in vivo
[15] = Clearance in Beagle dog at 1 mg/kg, iv measured after 24 hrs by HPLC-MS analysis; assay type: ADME, organism-based, Canis lupus familiaris; details: in vivo
[16] = Volume of distribution at steady state in Beagle dog at 1 mg/kg, iv measured after 24 hrs by HPLC-MS analysis; assay type: ADME, organism-based, Canis lupus familiaris; details: in vivo, read-out: Vdss
[17] = Cmax in Beagle dog at 1 mg/kg, iv measured after 24 hrs by HPLC-MS analysis; assay type: ADME, organism-based, Canis lupus familiaris; details: in vivo
[18] = MRT in Beagle dog at 1 mg/kg, iv measured after 24 hrs by HPLC-MS analysis; assay type: ADME, organism-based, Canis lupus familiaris; details: in vivo
[19] = Unbound fraction in Beagle dog plasma at 1 mg/kg, iv measured after 24 hrs by HPLC-MS analysis; assay type: ADME, organism-based, Canis lupus familiaris
[20] = Toxicity in Beagle dog assessed as severe adverse effect at 1 mg/kg, iv measured after 24 hrs by HPLC-MS analysis; assay type: organism-based, Canis lupus familiaris; details: in vivo

| SMILES | IC50 [1] [nM] | IC50 [2] [nM] | IC50 [3] [nM] | MITC95 (Escherichia coli) [µM] | MITC95 (Serratia marcescens) [µM] | MITC95 (Klebsiella pneumoniae) [µM] | MITC95 (Pseudomonas aeruginosa [4]) [µM] | MITC95 (Pseudomonas aeruginosa [5]) [µM] | Ratio (Pseudomonas aeruginosa [6]) | further results |
| --- | --- | --- | --- | --- | --- | --- | --- | --- | --- | --- |
| Cc1ccc(-c2cccc(S(N)(=O)=O)c2-c2nnn[nH]2)cc1 | 3.7 | 64 | 57 | 1.5 | 14 | 127 |  |  |  |  |
| Nc1ccc(-c2ccc(C(F)(F)F)c(S(N)(=O)=O)c2-c2nn[nH]n2)cn1 | 2.7 | 6.9 | 1.3 | 0.2 | 0.4 | 4.8 | 200 | 1.56 | 128 | IC50 [7]: 3.1 nM |
| N=C(N)NCc1ccc(-c2ccc(C(F)(F)F)c(S(N)(=O)=O)c2-c2nn[nH]n2)cc1 | 3.9 | 3.4 | 0.4 | 0.3 | 0.06 | 0.8 | 35.4 | 0.39 | 90 |  |
| Nc1ccc2cccc(-c3ccc(C(F)(F)F)c(S(N)(=O)=O)c3-c3nn[nH]n3)c2n1 | 0.1 | 0.8 | 0.4 | 1.6 | 3.1 | 3.1 | 12.5 | 0.78 | 16 |  |
| Nc1nc2c(-c3ccc(CC4CCNCC4)c(S(N)(=O)=O)c3-c3nn[nH]n3)cccc2s1 | 0.7 | 19 | 2.2 | 0.8 | 3.1 | 1.6 | 18 | 1.6 | 11 | IC50 [7]: 2.1 nM |
| NS(=O)(=O)c1c(Br)ccc(-c2ccc(C3CCNCC3)cc2)c1-c1nn[nH]n1 | 11 | 10 | 3 | 0.4 | 0.2 | 1.6 |  |  |  |  |
| Nc1nc2c(-c3ccc(C(F)(F)F)c(S(N)(=O)=O)c3-c3nn[nH]n3)cccc2s1 | 0.2 | 1 | 0.4 | 3.1 | 1.6 | 3.1 | 6.3 | 0.78 | 8 | IC50 [7]: 0.1 nM |
| Cc1ccc(-c2ccc(C3CCNCC3)cc2)c(-c2nn[nH]n2)c1S(N)(=O)=O | 31 | 72 | 28 | 3 | 6 | 25 |  |  |  |  |
| NC1CCC(N2CCC(c3ccc(-c4ccc(C(F)(F)F)c(S(N)(=O)=O)c4-c4nn[nH]n4)cc3)CC2)CC1 (configuration not stated) | 6.4 | 1.8 | 11 | 1.6 | 3.1 | 50 | 3.1 | 0.78 | 4 |  |
| NC1(c2ccc(-c3ccc(C(F)(F)F)c(S(N)(=O)=O)c3-c3nn[nH]n3)cc2)CCNCC1 | 9.3 | 12.8 | 3 | 0.4 | 0.3 | 0.9 | 25 | 0.39 | 64 |  |
| Nc1ccc2ccc(-c3ccc(C(F)(F)F)c(S(N)(=O)=O)c3-c3nn[nH]n3)cc2n1 | 1.1 | 1.5 | 0.2 | 0.8 | 3.1 | 3.1 | 100 | 0.39 | 256 |  |
| N=C(N)N[C@H]1CC[C@H](c2ccc(C(F)(F)F)c(S(N)(=O)=O)c2-c2nn[nH]n2)CC1 | 17.5 | 25.5 | 0.7 | 1.2 | 0.4 | 1.2 | 200 | 0.78 | 256 |  |
| Nc1nc2cccc(-c3ccc(C(F)(F)F)c(S(N)(=O)=O)c3-c3nn[nH]n3)c2s1 | 0.04 | 0.8 | 0.1 | 1.6 | 6.3 | 6.3 | 50 | 1.56 | 32 |  |
| NS(=O)(=O)c1cccc(-c2ccc(C3CCNCC3)cc2)c1-c1nn[nH]n1 | 5 | 34 | 19 | 3 | 9 | 38 | 200 | 1.56 | 128 |  |
| NCCCc1ccc(-c2cccc3sc(N)nc23)c(-c2nn[nH]n2)c1S(N)(=O)=O | 0.8 | 12 | 1.8 | 0.8 | 1.6 | 1.6 | 12.5 | 0.8 | 16 |  |
| NS(=O)(=O)c1c(C(F)(F)F)ccc(-c2ccc(NS(=O)(=O)C3CC3)cc2)c1-c1nn[nH]n1 | 0.3 | 0.2 | 0.08 | 6.3 | 3.1 | 12.5 | 50 | 0.78 | 64 |  |
| NS(=O)(=O)c1c(Cl)ccc(-c2ccc(C3CCNCC3)cc2)c1-c1nn[nH]n1 | 6 | 9 | 3 | 0.8 | 0.4 | 1.6 | 50 | 0.39 | 128 |  |
| Nc1nc2ccc(-c3ccc(C(F)(F)F)c(S(N)(=O)=O)c3-c3nn[nH]n3)cc2s1 | 0.8 | 2.5 | 0.3 | 3.1 | 3.1 | 12.5 | 200 | 1.56 | 128 |  |
| NS(=O)(=O)c1c(C(F)(F)F)ccc([C@H]2CC[C@H](N)CC2)c1-c1nnn[nH]1 | 13.5 | 39.4 | 0.7 | 0.4 | 0.8 | 0.8 | 200 | 0.78 | 256 | AUC at 24 h [8]: 5 µM·h; clearance [9]: 8.7 mL/min/kg; Vd [10]: 0.45 L/kg; Cmax [11]: 12.7 µM; MRT [12]: 0.87 h; fraction unbound at 24 h [13]: 0.78; AUC at 24 h [14]: 16.7 µM·h; clearance [15]: 2.6 mL/min/kg; Vd [16]: 0.31 L/kg; Cmax [17]: 15 µM; MRT [18]: 2.03 h; fraction unbound at 24 h [19]: 0.76; Activity [20]: Non-Toxic |
| NS(=O)(=O)c1c(C(F)(F)F)ccc(-c2ccc(C3CCNCC3)cc2)c1-c1nn[nH]n1 | 0.9 | 1.2 | 0.3 | 0.7 | 0.2 | 1.9 | 50 | 0.78 | 64 |  |
